The source of these data is US20060172958A1, “Phospholipid scramblase 3” (priority 2003, published 2006).

One test concerns mouse liver mitochondria. As to the kind of experiment: Cardiolipin transfer assay (NAO fluorescence). To be noted: 30 μM NAO, vs buffer or BSA control. It counts as biochemical. The source says:
Cardiolipin was then investigated since cardiolipin is a mitochondrion-specific phospholipid and is potentially more critical in the process of apoptosis. Because radioactive cardiolipin is not commercially available, NAO was used to quantify cardiolipin in the recipient mitochondria. NAO binds cardiolipin specifically without interference by other phospholipids with a stoichiometry of 1 to 1 or 2 to 1. To achieve maximal NAO saturation, the recipient mitochondria were permeablized and fixed with formaldehyde. A dose titration of NAO was then performed. The red fluorescence achieved a plateau when the NAO concentrations were above 20 μM as reported (Garcia Fernandez et al. 2000). The concentration of 30 μM was thus chosen to determine the total amount of cardiolipin after in vitro cardiolipin transfer assay. […]
Phospholipid transfer assay was modified from Koumanov et al. (Koumanov and Infante 1986). […] Mitochondria were then washed five times with mitochondrial preparation buffer to remove free liposomes and counted by scintillation counter for ^14C activity. For cardiolipin transfer assays, total amounts of cardiolipin were quantified by specific fluorescence with NAO dye. NAO (30 μM) was added to recipient mitochondria, and fluorescence intensity was measured at 590±35 nm by fluorescence microplate reader.

A further test concerns 293-vector cells. Put plainly: Mitochondrial potential by Rhodamine 123 flow cytometry. The class given is cell-based. Particulars: antimycin A for 6 h. As for the experimental part:
FIG. 14. Overexpression of mutant PLS3 reduces mitochondrial mass, potential, and cytochrome c and CL content. […] C. […] The blot was re-probed with antibodies to VDAC and tubulin for controls. […] Error bars, SDs from five independent measurements. E. Quantitative PCR analysis of mitochondrial NADH dehydrogenase in 400 ng of whole cell genomic DNA. […] The crossing points (in cycle numbers) of the three cells are indicated.

The next test concerns HEK293 cells. Put plainly: UV-induced cytochrome c release, subcellular fractionation and Western blot. The class given is cell-based. As for the experimental part:
Subcellular fractionation was performed by differential centrifugation. In brief, […] were incubated in buffer containing 300 mM sucrose, 10 mM Tris (pH 7.5), 5 mM EDTA, 0.1% BSA and 1 mM PMSF protease inhibitor for 5 min on ice. Cells were disrupted by passage through a 25 G needle or dounced for 10 strokes, and then were centrifuged at 1000×g for 5 minutes, 10,000×g for 10 minutes, and 30,000×g for 60 minutes, for collection of intact cells/nuclei, crude mitochondria and microsomes, respectively. The final supernatants were used as cytosols. The mitochondria and the cytosolic fractions were analyzed for cytochrome c release with Western blot.
The kinase that phosphorylates PLS3 was then sought. Based on the observation that PLS1 is phosphorylated by […], we studied whether PLS3 is the mitochondrial substrate of PKC-δ. It was first reconfirmed that PKC-δ is essential for UV-induced apoptosis by blocking PKC-δ with a PKC-δ inhibitor, rottlerin, in our system. The HEK293 cells were fractionated and the isolated mitochondria and cytosols were analyzed for cytochrome c release by Western blot. This study confirmed that cytochrome c was released to cytosol after UV irradiation, and this release was inhibited by rottlerin (FIG. 20b). […]
In general terms: Immunoblotting shows a protein as a band on a membrane.

The next test deals with HeLa-control cells. Put plainly: TUNEL apoptosis assay with flow cytometry. The class given is cell-based. To be noted: 200 nM PMA, 2 hours. The procedure:
(§1) Apoptotic assays were performed with annexinV-PE (BD-PharMingen) per manufacturer's protocol. The TUNEL assay (terminal deoxynucleotidyltransferase-mediated dUTP-biotin nick end labeling) was performed according to the manufacturer's protocol (Roche, Switzerland).
(§2) If PLS3 is a direct downstream effector of PKC-δ in the PKC-δ-induced apoptotic pathway, then overexpression of PLS3 might enhance apoptosis induced by PKC-δ activation. HeLa-PLS3 were incubated with phorbol ester PMA, and analyzed for apoptosis with TUNEL assay and flow cytometry.
In general terms: In flow cytometry, cells or beads pass a laser one at a time.

The next test deals with HeLa-PLS3 cells. Put plainly: TUNEL apoptosis assay with flow cytometry. It counts as cell-based. Particulars: 200 nM PMA, 2 hours. As for the experimental part: as §1, §2

On to “PLS3: Recombinant phospholipid scramblase 3 protein; purified PLS3β in transfer assay, His-tagged PLS3 in kinase assay”, for which, in the test on mouse liver mitochondria, the “increase of total amount of cardiolipin in recipient mitochondria” value is 35%.
On to antimycin A, for which, in the test with 293-vector cells, the “mitochondrial potential (Rhodamine 123)” value was “decrease of mitochondrial potential”.
Consider `CC(=O)c1c(O)c(C)c(O)c(Cc2c(O)c3c(c(C(=O)/C=C/c4ccccc4)c2O)OC(C)(C)C=C3)c1O` [rottlerin], for which the “amount of PKC-δ translocated to mitochondria” value in the test on HEK293 cells (UV plus rottlerin, washed mitochondria, 100 nM PMA, cytochrome c release) is recorded as “decreased”. In addition, the “cytochrome c release to cytosol after UV irradiation” value in the test with HEK293 cells (rottlerin 10 μM, harvested 4 hours after UV) was “inhibited”.
Turning to `CCCCCCCCCCCCCC(=O)O[C@@H]1[C@@H](C)[C@@]2(O)[C@@H](C=C(CO)C[C@]3(O)C(=O)C(C)=C[C@@H]23)[C@@H]2C(C)(C)[C@]12OC(C)=O` [PMA], the entries for the “apoptosis (TUNEL)” value in the test with HeLa-control cells and in the test on HeLa-PLS3 cells were “did not induce any apoptosis” and “shifted the curve to right”, respectively.
